# In PubChem BioAssay (NCI):
#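 Here, GI50 denotes the concentration required for 50% inhibition of growth. TGI: total growth inhibition.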
# Key:
# Assay in all cases: inhibition of tumour cell growth, NCI panel, 384-well format
# 786-0 renal = system: 786-0 renal
# A498 renal = system: A498 renal
# A549 NSCLC = system: A549 NSCLC
# ACHN renal = system: ACHN renal
# CAKI-1 renal = system: CAKI-1 renal
# CCRF-CEM leukemia = system: CCRF-CEM leukemia
# COLO 205 colon = system: COLO 205 colon
# DU-145 prostate = system: DU-145 prostate
# EKVX NSCLC = system: EKVX NSCLC
# HCC-2998 colon = system: HCC-2998 colon
# HCT-15 colon = system: HCT-15 colon
# HOP-92 NSCLC = system: HOP-92 NSCLC
# HT29 colon = system: HT29 colon
# IGROV1 ovarian = system: IGROV1 ovarian
# K-562 leukemia = system: K-562 leukemia
# KM12 colon = system: KM12 colon
# LOX IMVI melanoma = system: LOX IMVI melanoma
# M14 melanoma = system: M14 melanoma
# MALME-3M melanoma = system: MALME-3M melanoma
# MCF7 breast = system: MCF7 breast
# MDA-MB-231 breast = system: MDA-MB-231 breast
# MDA-MB-435 melanoma = system: MDA-MB-435 melanoma
# MDA-MB-468 breast = system: MDA-MB-468 breast
# MOLT-4 leukemia = system: MOLT-4 leukemia
# NCI-H23 lung = system: NCI-H23 lung
# NCI-H322M lung = system: NCI-H322M lung
# NCI-H460 NSCLC = system: NCI-H460 NSCLC
# NCI-H522 lung = system: NCI-H522 lung
# NCI/ADR-RES ovarian = system: NCI/ADR-RES ovarian
# OVCAR-3 ovarian = system: OVCAR-3 ovarian
# OVCAR-4 ovarian = system: OVCAR-4 ovarian
# OVCAR-5 ovarian = system: OVCAR-5 ovarian
# OVCAR-8 ovarian = system: OVCAR-8 ovarian
# RXF 393 renal = system: RXF 393 renal
# SF-268 CNS = system: SF-268 CNS
# SF-295 CNS = system: SF-295 CNS
# SF-539 CNS = system: SF-539 CNS
# SK-MEL-2 melanoma = system: SK-MEL-2 melanoma
# SK-MEL-28 melanoma = system: SK-MEL-28 melanoma
# SK-MEL-5 melanoma = system: SK-MEL-5 melanoma
# SN12C renal = system: SN12C renal
# SNB-19 CNS = system: SNB-19 CNS
# SR leukemia = system: SR leukemia
# SW-620 colon = system: SW-620 colon
# TK-10 renal = system: TK-10 renal
# U251 glioblastoma = system: U251 glioblastoma
# UACC-62 melanoma = system: UACC-62 melanoma
structure (smiles),measurement,setting,value
CS(=O)(=O)N1CCN(Cc2cc3nc(-c4cccc5[nH]ncc45)nc(N4CCOCC4)c3s2)CC1,GI50,786-0 renal,0.492 µM
same,TGI,786-0 renal,2.77 µM
same,GI50,A498 renal,0.29 µM
same,TGI,A498 renal,1.59 µM
same,GI50,A549 NSCLC,0.533 µM
same,TGI,A549 NSCLC,> 100 µM
same,GI50,ACHN renal,0.46 µM
same,TGI,ACHN renal,6.92 µM
same,GI50,CAKI-1 renal,0.26 µM
same,TGI,CAKI-1 renal,6.81 µM
same,GI50,CCRF-CEM leukemia,1.8 µM
same,TGI,CCRF-CEM leukemia,6.98 µM
same,GI50,COLO 205 colon,0.48 µM
same,TGI,COLO 205 colon,34.2 µM
same,GI50,DU-145 prostate,0.581 µM
same,TGI,DU-145 prostate,> 100 µM
same,GI50,EKVX NSCLC,0.185 µM
same,TGI,EKVX NSCLC,2.7 µM
same,GI50,HCC-2998 colon,0.723 µM
same,TGI,HCC-2998 colon,14.3 µM
same,GI50,HCT-15 colon,0.708 µM
same,TGI,HCT-15 colon,24.1 µM
same,GI50,HOP-92 NSCLC,0.202 µM
same,TGI,HOP-92 NSCLC,1.49 µM
same,GI50,HT29 colon,0.744 µM
same,TGI,HT29 colon,14.7 µM
same,GI50,IGROV1 ovarian,0.0386 µM
same,TGI,IGROV1 ovarian,0.215 µM
same,GI50,K-562 leukemia,5.48 µM
same,TGI,K-562 leukemia,> 100 µM
same,GI50,KM12 colon,0.888 µM
same,TGI,KM12 colon,> 100 µM
same,GI50,LOX IMVI melanoma,0.827 µM
same,TGI,LOX IMVI melanoma,11.7 µM
same,GI50,M14 melanoma,0.916 µM
same,TGI,M14 melanoma,> 100 µM
same,GI50,MALME-3M melanoma,0.223 µM
same,TGI,MALME-3M melanoma,3.03 µM
same,GI50,MCF7 breast,0.0582 µM
same,TGI,MCF7 breast,16.3 µM
same,GI50,MDA-MB-231 breast,2.13 µM
same,TGI,MDA-MB-231 breast,> 100 µM
same,GI50,MDA-MB-435 melanoma,1.18 µM
same,TGI,MDA-MB-435 melanoma,11.9 µM
same,GI50,MDA-MB-468 breast,0.127 µM
same,TGI,MDA-MB-468 breast,0.685 µM
same,GI50,MOLT-4 leukemia,0.0822 µM
same,TGI,MOLT-4 leukemia,0.363 µM
same,GI50,NCI-H23 lung,0.57 µM
same,TGI,NCI-H23 lung,18.6 µM
same,GI50,NCI-H322M lung,0.442 µM
same,TGI,NCI-H322M lung,5.32 µM
same,GI50,NCI-H460 NSCLC,0.206 µM
same,TGI,NCI-H460 NSCLC,47.9 µM
same,GI50,NCI-H522 lung,0.391 µM
same,TGI,NCI-H522 lung,7.58 µM
same,GI50,NCI/ADR-RES ovarian,1.7 µM
same,TGI,NCI/ADR-RES ovarian,49.9 µM
same,GI50,OVCAR-3 ovarian,0.28 µM
same,TGI,OVCAR-3 ovarian,4.39 µM
same,GI50,OVCAR-4 ovarian,1.38 µM
same,TGI,OVCAR-4 ovarian,41.2 µM
same,GI50,OVCAR-5 ovarian,0.553 µM
same,TGI,OVCAR-5 ovarian,> 100 µM
same,GI50,OVCAR-8 ovarian,1.11 µM
same,TGI,OVCAR-8 ovarian,> 100 µM
same,GI50,RXF 393 renal,0.152 µM
same,TGI,RXF 393 renal,0.638 µM
same,GI50,SF-268 CNS,1.51 µM
same,TGI,SF-268 CNS,23.3 µM
same,GI50,SF-295 CNS,0.454 µM
same,TGI,SF-295 CNS,3.59 µM
same,GI50,SF-539 CNS,0.446 µM
same,TGI,SF-539 CNS,> 100 µM
same,GI50,SK-MEL-2 melanoma,7.04 µM
same,TGI,SK-MEL-2 melanoma,> 100 µM
same,GI50,SK-MEL-28 melanoma,0.202 µM
same,TGI,SK-MEL-28 melanoma,4.18 µM
same,GI50,SK-MEL-5 melanoma,0.795 µM
same,TGI,SK-MEL-5 melanoma,8.53 µM
same,GI50,SN12C renal,0.328 µM
same,TGI,SN12C renal,67.2 µM
same,GI50,SNB-19 CNS,4.38 µM
same,TGI,SNB-19 CNS,> 100 µM
same,GI50,SR leukemia,1.53 µM
same,TGI,SR leukemia,4.01 µM
same,GI50,SW-620 colon,2.42 µM
same,TGI,SW-620 colon,> 100 µM
same,GI50,TK-10 renal,0.203 µM
same,TGI,TK-10 renal,1.12 µM
same,GI50,U251 glioblastoma,2.34 µM
same,TGI,U251 glioblastoma,> 100 µM
same,GI50,UACC-62 melanoma,0.238 µM
same,TGI,UACC-62 melanoma,1.93 µM
O=C(CCCCCCC(=O)N/N=C/c1ccc(N(c2ccccc2)c2ccccc2)cc1)NO,GI50,786-0 renal,1.84 µM
same,TGI,786-0 renal,3.82 µM
same,GI50,A498 renal,0.146 µM
same,TGI,A498 renal,0.283 µM
same,GI50,A549 NSCLC,1.84 µM
same,TGI,A549 NSCLC,3.83 µM
same,GI50,ACHN renal,1.79 µM
same,TGI,ACHN renal,3.59 µM
same,GI50,CAKI-1 renal,0.256 µM
same,TGI,CAKI-1 renal,1.14 µM
same,GI50,CCRF-CEM leukemia,0.979 µM
same,TGI,CCRF-CEM leukemia,2.26 µM
same,GI50,COLO 205 colon,2.12 µM
same,TGI,COLO 205 colon,3.85 µM
same,GI50,DU-145 prostate,1.74 µM
same,TGI,DU-145 prostate,3.37 µM
same,GI50,EKVX NSCLC,2.62 µM
same,TGI,EKVX NSCLC,6.52 µM
same,GI50,HCC-2998 colon,1.84 µM
same,TGI,HCC-2998 colon,3.87 µM
same,GI50,HCT-15 colon,2.8 µM
same,TGI,HCT-15 colon,7.26 µM
same,GI50,HOP-92 NSCLC,1.05 µM
same,TGI,HOP-92 NSCLC,2.62 µM
same,GI50,HT29 colon,1.8 µM
same,TGI,HT29 colon,3.45 µM
same,GI50,IGROV1 ovarian,0.413 µM
same,TGI,IGROV1 ovarian,1.46 µM
same,GI50,K-562 leukemia,1.42 µM
same,TGI,K-562 leukemia,2.75 µM
same,GI50,KM12 colon,2.63 µM
same,TGI,KM12 colon,9.17 µM
same,GI50,LOX IMVI melanoma,0.19 µM
same,TGI,LOX IMVI melanoma,0.369 µM
same,GI50,M14 melanoma,2.7 µM
same,TGI,M14 melanoma,7.06 µM
same,GI50,MALME-3M melanoma,2.07 µM
same,TGI,MALME-3M melanoma,4.62 µM
same,GI50,MCF7 breast,0.297 µM
same,TGI,MCF7 breast,1.72 µM
same,GI50,MDA-MB-231 breast,1.9 µM
same,TGI,MDA-MB-231 breast,4.6 µM
same,GI50,MDA-MB-435 melanoma,3.91 µM
same,TGI,MDA-MB-435 melanoma,11.9 µM
same,GI50,MDA-MB-468 breast,0.137 µM
same,TGI,MDA-MB-468 breast,0.277 µM
same,GI50,MOLT-4 leukemia,0.471 µM
same,TGI,MOLT-4 leukemia,1.51 µM
same,GI50,NCI-H23 lung,1.56 µM
same,TGI,NCI-H23 lung,3.17 µM
same,GI50,NCI-H322M lung,3.11 µM
same,TGI,NCI-H322M lung,9.54 µM
same,GI50,NCI-H460 NSCLC,1.16 µM
same,TGI,NCI-H460 NSCLC,2.45 µM
same,GI50,NCI-H522 lung,1.44 µM
same,TGI,NCI-H522 lung,4.34 µM
same,GI50,NCI/ADR-RES ovarian,4.36 µM
same,TGI,NCI/ADR-RES ovarian,15.9 µM
same,GI50,OVCAR-3 ovarian,0.673 µM
same,TGI,OVCAR-3 ovarian,1.9 µM
same,GI50,OVCAR-4 ovarian,0.686 µM
same,TGI,OVCAR-4 ovarian,2 µM
same,GI50,OVCAR-5 ovarian,0.665 µM
same,TGI,OVCAR-5 ovarian,2.09 µM
same,GI50,OVCAR-8 ovarian,1.5 µM
same,TGI,OVCAR-8 ovarian,3.88 µM
same,GI50,RXF 393 renal,0.79 µM
same,TGI,RXF 393 renal,2.1 µM
same,GI50,SF-268 CNS,1.99 µM
same,TGI,SF-268 CNS,3.94 µM
same,GI50,SF-295 CNS,1.75 µM
same,TGI,SF-295 CNS,3.37 µM
same,GI50,SF-539 CNS,2.15 µM
same,TGI,SF-539 CNS,4.88 µM
same,GI50,SK-MEL-2 melanoma,1.45 µM
same,TGI,SK-MEL-2 melanoma,2.83 µM
same,GI50,SK-MEL-28 melanoma,2.89 µM
same,TGI,SK-MEL-28 melanoma,8.29 µM
same,GI50,SK-MEL-5 melanoma,1.63 µM
same,TGI,SK-MEL-5 melanoma,3.1 µM
same,GI50,SN12C renal,1.83 µM
same,TGI,SN12C renal,3.62 µM
same,GI50,SNB-19 CNS,2.78 µM
same,TGI,SNB-19 CNS,7.2 µM
same,GI50,SR leukemia,0.144 µM
same,TGI,SR leukemia,0.321 µM
same,GI50,SW-620 colon,1.42 µM
same,TGI,SW-620 colon,2.79 µM
same,GI50,TK-10 renal,0.255 µM
same,TGI,TK-10 renal,0.72 µM
same,GI50,U251 glioblastoma,1.61 µM
same,TGI,U251 glioblastoma,3.07 µM
same,GI50,UACC-62 melanoma,0.397 µM
same,TGI,UACC-62 melanoma,1.44 µM
